Laboratory results reported in US11364248B2 (AMGEN INC., priority 2017, dated 2022).
Like-named read-outs stand apart in the source and are kept apart here.

Experiments:
Mcl-1/Bim interaction = Mcl-1/Bim interaction (Homo sapiens (Human), UniProt Q07820); test: Cell Free Mcl-1: Bim Affinity Assay (Mcl-1 HTRF); format: binding; settings: TR-FRET, recombinant human Mcl-1(171-327), biotin-Bim(51-76); read-out: Mel-1 HTRF IC50
Procedure: Cell Free Mcl-1: Bim Affinity Assay (Mcl-1 HTRF)
The inhibition of the Mcl-1/Bim interaction was measured using a time-resolved fluorescence resonance energy transfer (TR-FRET) assay. The recombinant human Mcl-1 (C-terminally 6×His tagged Mcl-1 containing residues 171-327) was generated at Amgen Inc (Thousand Oaks, Calif.). A biotinylated peptide derived from human Bim (residues 51-76) was purchased from CPC Scientific (San Jose, Calif.). The TR-FRET assay was conducted in a 384-well white OptiPlate™ (PerkinElmer, Waltham, Mass.) in a total volume of 40 μL. The reaction mixture contained 0.1 nM Mcl-1(171-327), 0.05 nM biotin-Bim(51-76), 0.05 nM LANCER Eu-W1024 Anti-6×His (PerkinElmer), 0.072 nM Streptavidin-Xlent (Cisbio, Bedford, Mass.), and serially diluted test compounds in the binding buffer of 20 mM Hepes, pH 7.5, 150 mM NaCl, 0.016 mM Brij©35, and 1 mM dithiothreitol. Test compounds were pre-incubated with Mcl-1(171-327) and biotin-Bim (51-76) for 60 min before addition of the detection mixture (LANCE Eu-W1024 Anti-6×His and Streptavidin-Xlent). The reaction plates were further incubated overnight and then were read on an Envision® multimode reader (PerkinElmer). Fluorescence signals were measured at 620 nm (40-nm bandwidth) and 665 nm (7.5-nm bandwidth) with a 60 μs delay after excitation at 320 nm (75-nm bandwidth). The signal ratio at 665/620 nm corresponded to the Mcl-1/Bim interaction and was used in all data analyses. The IC50 values of test compounds were determined from duplicate data by analyzing competition curves using a four-parameter sigmoidal model in GraphPad Prism (GraphPad Software, San Diego, Calif.) or in Genedata Screener® (Genedata, Basel, Switzerland).

OPM-2 = test: Cell Viability Assay (OPM-2 10 FBS); format: cell-based, human; settings: OPM-2 cells, CellTiter-Glo, read-out: OPM-2 10% FBS IC50 IP
Procedure: Cell Viability Assay (OPM-2 10 FBS)
The human multiple myeloma cell line, OPM-2, was cultured in complete growth medium containing RPMI 1640 and 10% fetal bovine serum (FBS). Cells were seeded into 384-well plates at 3000 cells/well density in complete growth medium containing 10% FBS, and incubated for 16 h with serially diluted test compounds in a 37° C. incubator with 5% CO2. Cell viability was tested using CellTiter-Glo® assay (Promega, Madison, Wis.) according to the manufacturer recommendations. Luminescence was determined using an EnVision® Multilabel plate reader 25 min after the addition of detection reagent. IC50 values were then calculated with Xlfit using a logistical 4-parameter fit model in GraphPad Prism (GraphPad Software, San Diego, Calif.) or in Genedata Screener® (Genedata, Basel, Switzerland).

Mcl-1/Bim interaction, sequence (Q07820 171-327): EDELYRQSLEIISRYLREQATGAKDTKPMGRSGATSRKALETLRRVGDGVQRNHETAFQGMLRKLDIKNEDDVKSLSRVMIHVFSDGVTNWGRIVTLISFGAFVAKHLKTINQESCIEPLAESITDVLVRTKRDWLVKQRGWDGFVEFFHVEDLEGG

`C[C@@H]1[C@@H](C)CCC[C@@H]([C@H]2OC[C@@H](CN(C)C)O2)[C@@H]2CC[C@H]2CN2C[C@@]3(CCCc4cc(Cl)ccc43)COc3ccc(cc32)C(=O)NS1(=O)=O` (single isomer, unassigned) [Example 29] showed an IC50 (Mcl-1/Bim interaction) of 0.837 nM and an IC50 (OPM-2; 16 h) of 317 nM.

`C[C@@H]1[C@@H](C)CCC[C@@H]([C@H]2OC[C@@H](CN(C)C)O2)[C@@H]2CC[C@H]2CN2C[C@@]3(CCCc4cc(Cl)ccc43)COc3ccc(cc32)C(=O)NS1(=O)=O` (single isomer, unassigned) [Example 30] was tested, and the IC50 (Mcl-1/Bim interaction) was 5.12 nM and the IC50 (OPM-2; 16 h) was 2440 nM.

Molecule `C[C@@H]1[C@@H](C)CCC[C@@H]([C@H]2OC[C@H](CN(C)C)O2)[C@@H]2CC[C@H]2CN2C[C@@]3(CCCc4cc(Cl)ccc43)COc3ccc(cc32)C(=O)NS1(=O)=O` (single isomer, unassigned) [Example 33] has an IC50 (Mcl-1/Bim interaction) of 0.612 nM and an IC50 (OPM-2; 16 h) of 319 nM.

`C[C@@H]1[C@@H](C)CCC[C@@H]([C@H]2OC[C@H](CN(C)C)O2)[C@@H]2CC[C@H]2CN2C[C@@]3(CCCc4cc(Cl)ccc43)COc3ccc(cc32)C(=O)NS1(=O)=O` (single isomer, unassigned) [Example 34] was tested, and the IC50 (Mcl-1/Bim interaction) was 11.1 nM and the IC50 (OPM-2; 16 h) was 5830 nM.

`CC(=O)N1C[C@@H]2O[C@@H]([C@H]3CCC[C@H](C)[C@@H](C)S(=O)(=O)NC(=O)c4ccc5c(c4)N(C[C@@H]4CC[C@H]43)C[C@@]3(CCCc4cc(Cl)ccc43)CO5)O[C@@H]2C1` (single isomer, unassigned) [Example 39] was tested, and the IC50 (Mcl-1/Bim interaction) was 0.375 nM and the IC50 (OPM-2; 16 h) was 578 nM.

Work on `C[C@@H]1[C@@H](C)CCC[C@@H]([C@H]2OC[C@@H](N3CC(F)C3)CO2)[C@@H]2CC[C@H]2CN2C[C@@]3(CCCc4cc(Cl)ccc43)COc3ccc(cc32)C(=O)NS1(=O)=O` (single isomer, unassigned) [Example 50] yielded an IC50 (Mcl-1/Bim interaction) of 0.492 nM and an IC50 (OPM-2; 16 h) of 126 nM.

`C[C@@H]1[C@@H](C)CCC[C@@H]([C@H]2OC[C@@H](N3CC(F)C3)CO2)[C@@H]2CC[C@H]2CN2C[C@@]3(CCCc4cc(Cl)ccc43)COc3ccc(cc32)C(=O)NS1(=O)=O` (single isomer, unassigned) [Example 51] was tested, and the IC50 (Mcl-1/Bim interaction) was 0.754 nM and the IC50 (OPM-2; 16 h) was 1010 nM.

For `C[C@@H]1[C@@H](C)CCC[C@@H]([C@H]2OC[C@@H](N3CC(Cl)C3)CO2)[C@@H]2CC[C@H]2CN2C[C@@]3(CCCc4cc(Cl)ccc43)COc3ccc(cc32)C(=O)NS1(=O)=O` (single isomer, unassigned) [Example 55], the IC50 (Mcl-1/Bim interaction) was 0.742 nM and the IC50 (OPM-2; 16 h) was 465 nM.

Work on `C[C@@H]1[C@@H](C)CCC[C@@H]([C@H]2OC[C@@H](N3CC(Cl)C3)CO2)[C@@H]2CC[C@H]2CN2C[C@@]3(CCCc4cc(Cl)ccc43)COc3ccc(cc32)C(=O)NS1(=O)=O` (single isomer, unassigned) [Example 56] yielded an IC50 (Mcl-1/Bim interaction) of 1.98 nM and an IC50 (OPM-2; 16 h) of 1900 nM.

In the case of `C[C@@H]1[C@@H](C)CCC[C@@H]([C@H]2OC[C@@H](N3CC(O)C3)CO2)[C@@H]2CC[C@H]2CN2C[C@@]3(CCCc4cc(Cl)ccc43)COc3ccc(cc32)C(=O)NS1(=O)=O` (single isomer, unassigned) [Example 61], the IC50 (Mcl-1/Bim interaction) is reported as 0.455 nM and the IC50 (OPM-2; 16 h) is reported as 1010 nM.

For `C[C@@H]1[C@@H](C)CCC[C@@H]([C@H]2OC[C@@H](N3CC(O)C3)CO2)[C@@H]2CC[C@H]2CN2C[C@@]3(CCCc4cc(Cl)ccc43)COc3ccc(cc32)C(=O)NS1(=O)=O` (single isomer, unassigned) [Example 62], the IC50 (Mcl-1/Bim interaction) was 2.08 nM and the IC50 (OPM-2; 16 h) was 4470 nM.

With `C[C@@H]1[C@@H](C)CCC[C@@H]([C@H]2OC[C@@H](N3CCC3(C)C)CO2)[C@@H]2CC[C@H]2CN2C[C@@]3(CCCc4cc(Cl)ccc43)COc3ccc(cc32)C(=O)NS1(=O)=O` (single isomer, unassigned) [Example 63] the IC50 (Mcl-1/Bim interaction) was 2.06 nM and the IC50 (OPM-2; 16 h) was 1150 nM.

For `C[C@@H]1[C@@H](C)CCC[C@@H]([C@H]2OC[C@@H](N3CCC3(C)C)CO2)[C@@H]2CC[C@H]2CN2C[C@@]3(CCCc4cc(Cl)ccc43)COc3ccc(cc32)C(=O)NS1(=O)=O` (single isomer, unassigned) [Example 64], the IC50 (Mcl-1/Bim interaction) was 4.9 nM and the IC50 (OPM-2; 16 h) was 7490 nM.

`C[C@@H]1[C@@H](C)CCCC(C2OCC(N)(CO)CO2)[C@@H]2CC[C@H]2CN2C[C@@]3(CCCc4cc(Cl)ccc43)COc3ccc(cc32)C(=O)NS1(=O)=O` (single isomer, unassigned) [Example 80] showed an IC50 (Mcl-1/Bim interaction) of 0.382 nM and an IC50 (OPM-2; 16 h) of 240 nM.

Molecule `C[C@@H]1[C@@H](C)CCCC(C2OCC(CO)(N(C)C)CO2)[C@@H]2CC[C@H]2CN2C[C@@]3(CCCc4cc(Cl)ccc43)COc3ccc(cc32)C(=O)NS1(=O)=O` (single isomer, unassigned) [Example 86] has an IC50 (Mcl-1/Bim interaction) of 0.448 nM and an IC50 (OPM-2; Homo sapiens, OPM-2, 16 h) of 178 nM.

Work on `C[C@@H]1[C@@H](C)CCC[C@H]([C@H]2O[C@H]3CNC[C@H]3O2)[C@@H]2CC[C@H]2CN2C[C@@]3(CCCc4cc(Cl)ccc43)COc3ccc(cc32)C(=O)NS1(=O)=O` (stereo in doubt) [Example 9, (1S,3′R,6′R,7′R,11′S,12′R)-6-chloro-11′,12′-dimethyl-7′-((2r,3aR,6aS)-tetrahydro-3aH-[1,3]dioxolo[4,5-c]pyrrol-2-yl)-3,4-dihydro-2H,15′H-spiro[naphthalene-1,22′-[20]oxa[13]thia[1,14]diazatetracyclo [14.7.2.0~3,6~.0~19,24~]pentacosa[16,18,24]trien]-15′-one 13′,13′-dioxide] yielded an IC50 (Mcl-1/Bim interaction) of 0.49 nM and an IC50 (OPM-2; 16 h) of 381 nM.

`C[C@@H]1[C@@H](C)CCC[C@H]([C@H]2O[C@H]3CNC[C@H]3O2)[C@@H]2CC[C@H]2CN2C[C@@]3(CCCc4cc(Cl)ccc43)COc3ccc(cc32)C(=O)NS1(=O)=O` (stereo in doubt) [Example 10, (1S,3′R,6′R,7′R,11′S,12′R)-6-chloro-11′,12′-dimethyl-7′-((2r,3aR,6aS)-tetrahydro-3aH-[1,3]dioxolo[4,5-c]pyrrol-2-yl)-3,4-dihydro-2H,15′H-spiro[naphthalene-1,22′-[20]oxa[13]thia[1,14]diazatetracyclo [14.7.2.0~3,6~.0~19,24~]pentacosa[16,18,24]trien]-15′-one 13′,13′-dioxide] was tested, and the IC50 (Mcl-1/Bim interaction) was 1.27 nM and the IC50 (OPM-2; 16 h) was 1120 nM.

For `C[C@@H]1[C@@H](C)CCC[C@H]([C@H]2O[C@H]3CNC[C@H]3O2)[C@@H]2CC[C@H]2CN2C[C@@]3(CCCc4cc(Cl)ccc43)COc3ccc(cc32)C(=O)NS1(=O)=O` (stereo in doubt) [Example 15, (1S,3′R,6′R,7′R,11′S,12′R)-6-chloro-11′,12′-dimethyl-7′-((2r,3aR,6aS)-tetrahydro-3aH-[1,3]dioxolo[4,5-c]pyrrol-2-yl)-3,4-dihydro-2H,15′H-spiro[naphthalene-1,22′-[20]oxa[13]thia[1,14]diazatetracyclo [14.7.2.0~3,6~.0~19,24~]pentacosa[16,18,24]trien]-15′-one 13′,13′-dioxide], the IC50 (Mcl-1/Bim interaction) was 0.765 nM and the IC50 (OPM-2; 16 h) was 625 nM.

Molecule `CC(=O)N1C[C@@H]2O[C@H]([C@H]3CCC[C@H](C)[C@@H](C)S(=O)(=O)NC(=O)c4ccc5c(c4)N(C[C@@H]4CC[C@H]43)C[C@@]3(CCCc4cc(Cl)ccc43)CO5)O[C@@H]2C1` (stereo in doubt) [Example 16, (1S,3′R,6′R,7′R,11′S,12′R)-7′-((2r,3aR,6aS)-5-acetyltetrahydro-3aH-[1,3]dioxolo[4,5-c]pyrrol-2-yl)-6-chloro-11′,12′-dimethyl-3,4-dihydro-2H,15′H-spiro[naphthalene-1,22′-[20]oxa[13]thia[1,14]diazatetracyclo [14.7.2.0~3,6~.0~19,24~]pentacosa[16,18,24]trien]-15′-one 13′,13′-dioxide] has an IC50 (Mcl-1/Bim interaction) of 0.194 nM and an IC50 (OPM-2; Homo sapiens, OPM-2, 16 h) of 262 nM.

Molecule `C[C@@H]1[C@@H](C)CCC[C@H]([C@H]2O[C@H]3CN(C)C[C@H]3O2)[C@@H]2CC[C@H]2CN2C[C@@]3(CCCc4cc(Cl)ccc43)COc3ccc(cc32)C(=O)NS1(=O)=O` (stereo in doubt) [Example 24, (1S,3′R,6′R,7′R,11′S,12′R)-6-chloro-11′,12′-dimethyl-7′-((2r,3aR,6aS)-5-methyltetrahydro-3aH-[1,3]dioxolo[4,5-c]pyrrol-2-yl)-3,4-dihydro-2H,15′H-spiro[naphthalene-1,22′-[20]oxa[13]thia[1,14]diazatetracyclo [14.7.2.0~3,6~.0~19,24~]pentacosa[16,18,24]trien]-15′-one 13′,13′-dioxide] has an IC50 (Mcl-1/Bim interaction) of 0.709 nM and an IC50 (OPM-2; Homo sapiens, OPM-2, 16 h) of 532 nM.
